Experimental findings from ChEMBL document CHEMBL3988442, “University of Dundee, Small-Polar-MMV Screening Library” (2021) are described below.

This assay relates to Schistosoma mansoni. The assay can be described thus: High throughput screening of compounds against Schistosoma mansoni motility. In kind it is functional. Also on record: dose or concentration left out as unconfirmed.

Turning to `NC(=O)CN1CCC(NC(=O)c2ccn(-c3cccc(F)c3)n2)CC1`, the “Percent Effect” value is 5.204%. As for `Cc1cc(C[C@@H]2COC[C@@H]2NC(=O)CN2CCCN(C)CC2)on1`, the “Percent Effect” value is -19.51%. `CS(=O)(=O)c1ccccc1C(=O)NCC1Cc2ccccc2O1` (stereo unspecified): the “Percent Effect” value was -25.81%.

On to `O=C(NCCCn1nc2ccccn2c1=O)NC1CCC(O)CC1` (stereo unspecified), for which the “Percent Effect” value is given as -74.25%. Regarding `Cc1ncc(-c2nc3cc(S(=O)(=O)N4CCCC4)ccc3n2C)cn1`, the “Percent Effect” value was -72.39%. Then `CS(=O)(=O)N1CCc2nc(NC(=O)Nc3c(F)cccc3F)sc2C1`, with -37.65%; and `COc1nc2c(cc1C(=O)N1C[C@H](N)C[C@H]1C(=O)NC(C)C)CCC2`, with 37.99%; and `Cc1cccc(CNCc2c(C(C)C)nn(C)c2N2CCOCC2)n1`, with -46%. Then `COc1ccc(NC(C)C(=O)N2CCN(c3ncccn3)CC2)cn1` (stereo unspecified), with -56.07%; and `Cc1ccc(F)c(OC2(C(=O)O)CCN(C(=O)N3CCCC3)CC2)c1`, with -4.164%. Consider `COCCn1ccnc1C1CCCN(C(=O)CSCC2CC2)C1` (stereo unspecified), for which the “Percent Effect” value was -4.392%. With `O=C1CCC2(CCN(Cc3cc(F)cc(F)c3)CC2)CN1CCO`, the “Percent Effect” value stood at 4.054%. Consider `CCCOc1cc(C)ccc1NC(=O)NCCC(=O)N(C)C`, for which the “Percent Effect” value is -17.12%. Next, `O=C(NCC1CC1)C1CSCN1S(=O)(=O)c1cccc(F)c1` (stereo unspecified): -77.75%. On to `CS(=O)(=O)c1ccc(CNCC2CCN(CCO)CC2)cc1`, for which the “Percent Effect” value was -49.34%. Next, `Cc1occc1C(=O)Nc1ccnc(OC2CCOC2)c1` (stereo unspecified): -74.39%; `O=C(c1ccc[nH]1)N1CCC(c2nccn2Cc2ccncc2)CC1`: -12.18%. Next, `CC(=O)N1CCC(Oc2ccc(Cl)cn2)CC1`: -33.97%. Next, `O=C1OCCN1CCOc1nc(-c2ccccc2Cl)no1`: -41.52%; `CC(OCC(F)(F)F)C(=O)N1CCN(S(C)(=O)=O)CC1` (stereo unspecified): -54.53%; `Cn1cnnc1S(=O)(=O)C1CCN(S(=O)(=O)C2CC2)CC1`: -25.74%. As to `COc1ccc(NC(C)C(=O)N2CCN(Cc3ccccc3)CC2)cn1` (stereo unspecified), the “Percent Effect” value is -29.98%. Next, `Cc1nc(CN2CCC(N(C)Cc3noc(C(C)C)n3)C2)cs1` (stereo unspecified): -19.62%.

For `Cc1cc(CC(=O)N2CCCC2c2nc(C(C)C)no2)on1` (stereo unspecified), the “Percent Effect” value is recorded as -26.98%.

As for `CN(C)C(CNS(=O)(=O)c1ccc(F)cc1F)c1cccn1C` (stereo unspecified), the “Percent Effect” value is 13.79%. Then `Cc1cccc(CCC(=O)N2CCOCC2c2c(C)n[nH]c2C)c1` (stereo unspecified), with -56.4%; and `O=C(CCc1nccs1)N1CCCC(N2CCNC2=O)C1` (stereo unspecified), with -31.05%. Then `CN(C)C(=O)C1CCCN1CCCNC(=O)c1ccccc1F` (stereo unspecified), with -45.94%; and `COCCN1C(=O)CC(N2CCN(c3ccc(OC)cc3)CC2)C1=O` (stereo unspecified), with -42.76%. Next, `CC(C)NC(=O)[C@@H]1C[C@H](N)CN1C(=O)c1cc2ccccc2[nH]c1=O`: -4.577%; `COc1ccccc1[C@@H]1CN(Cc2cc(C(C)(C)C)[nH]n2)C[C@H]1C(=O)O`: 42.17%.

On to `O=C(Nc1cccc(CN2CCOC2=O)c1)N1CCOCC1`, for which the “Percent Effect” value was 11.29%.

Regarding `O=C(c1cccnc1)N1C[C@@H]2CC[C@H](C1)N(Cc1ncc[nH]1)C2`, the “Percent Effect” value was -27.62%. Then `CCC1c2cccn2CCN1C(=O)c1ccc2nonc2c1` (stereo unspecified), with -19.69%; and `Cc1ccsc1CN(Cc1ccccn1)CC(C)C`, with 6.222%; and `COc1ccccc1OCc1cc(C(=O)N2C[C@H](O)[C@@H](N(C)C)C2)n[nH]1`, with -29.56%.

With `C1CCCN(c2nc(C3CC3)ns2)CC1`, the “Percent Effect” value is on record as -22.51%. As to `CS(=O)(=O)Cc1cccc(C(=O)NCC2Cc3ccccc3O2)c1` (stereo unspecified), the “Percent Effect” value is -78.27%. With `COCc1cc(NCCc2ccc(F)cc2)n2nccc2n1`, the “Percent Effect” value is on record as -25.55%. Next, `Cn1nc(C(=O)N2CCCCC2c2nc3cc(F)ccc3[nH]2)ccc1=O` (stereo unspecified): -12.79%; `CC(=O)N1CCC(Oc2ccc(C#N)cn2)CC1`: -36.18%; `Cc1nc(CN2CCCC2c2nc(C(C)C)no2)cs1` (stereo unspecified): -46.84%.

Take `Cc1ccn(-c2ccccc2NCc2ncc[nH]2)n1`: the “Percent Effect” value is -21.01%. Then `COc1ccc(CNC(=O)NCC2CCOC2)c(C(F)(F)F)c1` (stereo unspecified), with -32.81%; and `CC(NC(=O)N(C)Cc1ccncc1)c1nncn1C` (stereo unspecified), with -16.24%; and `CC(Cn1cccn1)NC(=O)Nc1ccc(F)cc1` (stereo unspecified), with -15.2%. `CC(C)(C)NC(=O)CNC(=O)CCc1ccccc1Br`: the “Percent Effect” value came to 20.34%. Then `CCC(=O)N1CCC(c2nnc(Cn3cncn3)n2C2CC2)CC1`, with -42.58%; and `CN(C)C(C(=O)N1CCC(N2CCSCC2)CC1)c1ccccc1F` (stereo unspecified), with 10.46%. Next, `COc1ccc(F)cc1S(=O)(=O)NCC(c1cccn1C)N(C)C` (stereo unspecified): -13.44%; `Cn1ncc2c(N3CCN(C(N)=O)CC3)nc(C3CCCC3)nc21`: -18.38%.

As for `N#Cc1ccc(OC2CCN(C(=O)c3ccc4c(c3)OCO4)CC2)nc1`, the “Percent Effect” value was -46.44%. As for `CCc1noc(C(C)N(C)CC(=O)Nc2cccc(C)n2)n1` (stereo unspecified), the “Percent Effect” value turned out to be 0.2571%.

As for `CN(C)C(=O)N1C[C@@H]2CC[C@H](C1)N(Cc1ccc3nsnc3c1)C2`, the “Percent Effect” value is listed as -20.59%. Then `COc1ccc(OC)c(-c2nc(CN(C)Cc3nncn3C)c(C)o2)c1`, with -42.05%. For the molecule `CSCC(CCO)NC(=O)Nc1cccc(Br)c1` (stereo unspecified), the “Percent Effect” value was -21.75%. For the molecule `CCn1nc(CC(C)C)cc1C(=O)NCCn1cccc1`, the “Percent Effect” value is -58.97%. Then `CC(C)(C)c1ccn(C2(C(=O)O)CCN(c3nccc(N)n3)CC2)n1`, with 14.42%. As for `CC1(NC(=O)Cc2csc(C(C)(C)C)n2)CCS(=O)(=O)C1` (stereo unspecified), the “Percent Effect” value is -25.94%. Next, `COCCN1CCN(C(=O)c2cc(C(C)C)on2)[C@H]2CS(=O)(=O)C[C@H]21`: 3.129%; `O=C1NCCCCC1Sc1nnc(-c2cccnc2)n1C1CC1` (stereo unspecified): -73.97%; `CC(C)(C(=O)NCC(N)=O)c1ccccc1F`: 10.05%.

`O=C(CCc1ccc(O)cc1)N1CCC(Cc2ccc(CO)cc2)C1` (stereo unspecified): the “Percent Effect” value was determined as 16.91%.

As for `CCn1c(CN(C)C)nnc1C1CCN(c2ccnc(C)c2)CC1`, the “Percent Effect” value stood at 3.943%. Then `Cc1ccccc1N1CCCN(C(=O)CCCS(N)(=O)=O)CC1`, with -57.21%. As for `CCCN(CCO)C(=O)C1CCC(=O)N(CCc2ccc(Cl)cc2)C1` (stereo unspecified), the “Percent Effect” value is on record as -16.9%. On to `C1CC1c1nsc(N2CCN(C3CC3)CC2)n1`, for which the “Percent Effect” value was -51.78%. As for `Cc1nc(C)n(CC2CN(CCc3ccncc3)CCO2)n1` (stereo unspecified), the “Percent Effect” value is reported as -26.46%. Turning to `O=C(CCc1nccs1)N1CCC(N2CCNC2=O)CC1`, the “Percent Effect” value is -51.15%.

Regarding `O=C(c1cccc(S(=O)(=O)NCCCc2ccco2)c1)N1CCOCC1`, the “Percent Effect” value is -44.89%. Then `C[C@@H]1CN(C2(C(=O)N3CCOCC3)Cc3ccccc3C2)C[C@H](C)O1`, with 12.59%. Then `Cc1nc(CN2CCCC(N(C)CCc3cccs3)C2)no1` (stereo unspecified), with -59.95%; and `COc1ccc(-n2nnc(C(=O)NC(C)C)c2C2CC2)cc1`, with 0.8394%. Next, `Cc1nccn1-c1cc(CNC(=O)C(C)(C)C)ccn1`: -28.12%. As for `CNC(=O)CS(=O)(=O)C1CCN(S(=O)(=O)C2CC2)CC1`, the “Percent Effect” value is given as 7.856%. Then `Cc1cnn(CC2CCCN2Cc2coc(-c3cccs3)n2)c1` (stereo unspecified), with -52.32%; and `O=C(Cc1ccc(O)c(Cl)c1)N1CCN(CC2CC2)[C@@H]2CS(=O)(=O)C[C@@H]21`, with -40.54%; and `Cc1cc(CC(=O)N2CCN(CC3CC3)[C@@H]3CS(=O)(=O)C[C@@H]32)ccc1F`, with 11.19%. Then `CCc1ccccc1CN1CC[C@@H](NC(=O)c2cccnc2)[C@H](O)C1`, with -49.14%; and `Cc1n[nH]c(C2CN(CC(=O)NCCc3ccsc3)CCO2)n1` (stereo unspecified), with -117.4%.

Take `O[C@H]1[C@H](n2cc(-c3cccnc3)nn2)c2ccccc2C12CCNCC2`: the “Percent Effect” value was -35.88%. For the molecule `CNC(=O)CS(=O)(=O)C1CCN(S(=O)(=O)c2ccccc2Br)CC1`, the “Percent Effect” value was -49.15%. Next, `CCC(=O)N1CCC2(CC1)c1nc[nH]c1CCN2S(C)(=O)=O`: -32.51%. Next, `O=C(NCCn1ccc(-c2ccncc2)n1)c1ccncc1`: -35.45%.

As to `N#Cc1c(F)cccc1N1CCC(NS(=O)(=O)c2cccs2)CC1`, the “Percent Effect” value was 28.82%. Regarding `O=C(NCCCn1cccn1)C1(c2ccc(F)cc2)CC1`, the “Percent Effect” value came out at 23.22%.

As for `CSc1ncc(C(=O)N2C[C@H]3CC[C@@H]2CN(Cc2ccccc2)C3)cn1`, the “Percent Effect” value is given as -35.01%. As to `Cc1nc2ccccn2c1CN(Cc1cccnc1)CC1CCCO1` (stereo unspecified), the “Percent Effect” value is -47.66%.

On to `CSC(C)C(=O)NCCCc1cc(N)n(-c2ccccc2)n1` (stereo unspecified), for which the “Percent Effect” value is recorded as -59.95%. Next, `CN(C)C(=O)c1ccc2c(c1)N(C)C(CC(=O)NC(C)(C)CO)CO2` (stereo unspecified): 4.699%. Then `CC(CNC(=O)c1ccc(F)cc1Cl)N1CCCC1` (stereo unspecified), with -36.02%; and `CCOc1ncccc1NC(=O)c1cc(C)c(C)s1`, with -34.96%; and `CN(C)CCN(Cc1ccc(Cl)cc1)C(=O)c1cc[nH]n1`, with 46.97%.

For `c1csc(-c2nc(CN3CCCC3Cn3cncn3)co2)c1` (stereo unspecified), the “Percent Effect” value is on record as -94.11%. Then `CC(C)(C)NC(=O)C1CSCN1S(=O)(=O)c1cccc(F)c1` (stereo unspecified), with -27.85%; and `CCCNC(=O)N1CCC(Oc2cc(C)ccc2F)(C(=O)O)CC1`, with 27.97%.
